Reference: ChEMBL document CHEMBL1909046, “DrugMatrix in vitro pharmacology data”

Columns and labels:
[1] = biological target: Vasopressin V1a receptor (Homo sapiens, UniProt P37288); format: cell membranes, Membrane; settings: hek293; note: in other assays of this panel Not Active means under 50% inhibition at 10 µM
[2] = biological target: 5-hydroxytryptamine receptor 2B (Homo sapiens, UniProt P41595); format: cell membranes, CHO-K1, Membrane; note: in other assays of this panel Not Active means under 50% inhibition at 10 µM
Chain of 5-hydroxytryptamine receptor 2B (P41595 whole entry): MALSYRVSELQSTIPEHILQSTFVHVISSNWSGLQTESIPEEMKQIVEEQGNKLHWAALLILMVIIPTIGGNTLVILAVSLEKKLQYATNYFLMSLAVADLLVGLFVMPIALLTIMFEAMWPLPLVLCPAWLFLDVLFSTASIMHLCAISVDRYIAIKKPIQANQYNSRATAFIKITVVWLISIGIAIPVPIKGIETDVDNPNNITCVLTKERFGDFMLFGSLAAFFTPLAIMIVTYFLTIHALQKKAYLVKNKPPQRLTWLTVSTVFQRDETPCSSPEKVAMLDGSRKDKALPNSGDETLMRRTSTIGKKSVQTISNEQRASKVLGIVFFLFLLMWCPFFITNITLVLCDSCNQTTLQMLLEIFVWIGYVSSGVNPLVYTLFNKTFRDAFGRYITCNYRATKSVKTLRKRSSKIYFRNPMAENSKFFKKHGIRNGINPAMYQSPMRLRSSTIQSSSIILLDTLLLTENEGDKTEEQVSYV

[3] = biological target: T1, Interstitial collagenase (Homo sapiens, UniProt P03956); test: biochemical; format: tissue-based, Rheumatoid synovial fibroblasts;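 note: MMP-1 enzyme inhibition assay using a peptide substrate; in other assays of this panel Not Active means under 50% inhibition at 10 µM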
T1 sequence (P03956 whole entry): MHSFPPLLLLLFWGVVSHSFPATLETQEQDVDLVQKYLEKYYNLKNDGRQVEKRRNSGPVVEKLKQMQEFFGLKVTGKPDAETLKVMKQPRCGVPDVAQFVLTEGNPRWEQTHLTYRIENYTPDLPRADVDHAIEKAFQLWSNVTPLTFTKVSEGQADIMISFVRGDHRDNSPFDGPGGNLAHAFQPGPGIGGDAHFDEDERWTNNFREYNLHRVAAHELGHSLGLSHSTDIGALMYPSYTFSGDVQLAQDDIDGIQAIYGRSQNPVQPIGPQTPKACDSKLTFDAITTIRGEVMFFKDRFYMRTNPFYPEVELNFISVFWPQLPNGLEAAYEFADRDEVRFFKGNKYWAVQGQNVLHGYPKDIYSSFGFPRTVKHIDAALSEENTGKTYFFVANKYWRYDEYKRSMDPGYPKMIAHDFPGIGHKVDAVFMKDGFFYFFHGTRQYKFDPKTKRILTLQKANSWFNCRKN

[4] = DRUGMATRIX: Glutamate, Kainate radioligand binding (ligand: [3H] Kainic acid); format: cell membranes, Rattus norvegicus, Wistar, Brain, Membrane; settings: Not Active = under 50% inhibition at 10 µM
[5] = biological target: Kappa-type opioid receptor (Homo sapiens, UniProt P41145); test: DRUGMATRIX: Opiate kappa (OP2, KOP) radioligand binding (ligand: [3H] Diprenorphine); format: cell membranes, HEK293, Membrane; settings: hek293; Not Active = under 50% inhibition at 10 µM
Chain of Kappa-type opioid receptor (P41145 whole entry): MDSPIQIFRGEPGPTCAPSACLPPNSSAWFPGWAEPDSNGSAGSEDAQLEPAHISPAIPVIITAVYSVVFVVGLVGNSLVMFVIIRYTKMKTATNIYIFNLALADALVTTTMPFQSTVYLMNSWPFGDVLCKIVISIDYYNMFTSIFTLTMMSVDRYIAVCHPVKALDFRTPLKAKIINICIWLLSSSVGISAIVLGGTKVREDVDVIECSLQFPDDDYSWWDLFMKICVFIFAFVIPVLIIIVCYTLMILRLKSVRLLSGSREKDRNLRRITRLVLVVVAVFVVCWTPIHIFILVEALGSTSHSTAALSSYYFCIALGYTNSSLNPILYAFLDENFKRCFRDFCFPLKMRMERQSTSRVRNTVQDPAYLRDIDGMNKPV

[6] = biological target: T2, 3-hydroxy-3-methylglutaryl-coenzyme A reductase (Homo sapiens, UniProt P04035); design: species or system Escherichia coli;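 note: enzyme inhibition assay of HMG-CoA reductase using radiolabeled [14C]HMG-CoA as substrate; in other assays of this panel Not Active means under 50% inhibition at 10 µM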
T2 sequence (P04035 whole entry): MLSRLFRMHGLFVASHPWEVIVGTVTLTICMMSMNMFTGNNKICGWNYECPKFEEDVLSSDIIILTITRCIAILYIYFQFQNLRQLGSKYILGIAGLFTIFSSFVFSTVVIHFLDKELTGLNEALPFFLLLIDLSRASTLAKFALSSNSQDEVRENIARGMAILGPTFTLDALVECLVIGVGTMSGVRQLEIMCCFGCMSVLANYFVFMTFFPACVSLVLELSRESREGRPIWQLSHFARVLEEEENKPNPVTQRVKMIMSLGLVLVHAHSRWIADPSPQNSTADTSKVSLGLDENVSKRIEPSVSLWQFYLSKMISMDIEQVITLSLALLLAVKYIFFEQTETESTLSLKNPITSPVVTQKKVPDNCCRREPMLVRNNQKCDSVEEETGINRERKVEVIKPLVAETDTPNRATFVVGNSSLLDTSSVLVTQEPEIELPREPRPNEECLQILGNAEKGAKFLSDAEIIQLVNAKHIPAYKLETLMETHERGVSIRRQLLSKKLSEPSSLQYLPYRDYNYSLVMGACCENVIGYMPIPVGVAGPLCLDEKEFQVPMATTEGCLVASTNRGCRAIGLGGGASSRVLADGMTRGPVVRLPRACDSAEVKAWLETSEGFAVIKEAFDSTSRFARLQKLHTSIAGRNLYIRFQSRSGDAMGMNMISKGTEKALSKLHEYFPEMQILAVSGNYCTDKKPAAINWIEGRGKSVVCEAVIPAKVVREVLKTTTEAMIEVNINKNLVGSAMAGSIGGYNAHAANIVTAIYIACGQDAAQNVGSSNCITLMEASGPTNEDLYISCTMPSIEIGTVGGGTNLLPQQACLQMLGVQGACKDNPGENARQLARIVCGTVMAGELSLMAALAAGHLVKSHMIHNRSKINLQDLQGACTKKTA

[7] = biological target: 5-hydroxytryptamine receptor 4 (Cavia porcellus, UniProt O70528); format: cell membranes, Dunkin-Hartley, Striatum, Membrane; note: in other assays of this panel Not Active means under 50% inhibition at 10 µM
Chain of 5-hydroxytryptamine receptor 4 (O70528 whole entry): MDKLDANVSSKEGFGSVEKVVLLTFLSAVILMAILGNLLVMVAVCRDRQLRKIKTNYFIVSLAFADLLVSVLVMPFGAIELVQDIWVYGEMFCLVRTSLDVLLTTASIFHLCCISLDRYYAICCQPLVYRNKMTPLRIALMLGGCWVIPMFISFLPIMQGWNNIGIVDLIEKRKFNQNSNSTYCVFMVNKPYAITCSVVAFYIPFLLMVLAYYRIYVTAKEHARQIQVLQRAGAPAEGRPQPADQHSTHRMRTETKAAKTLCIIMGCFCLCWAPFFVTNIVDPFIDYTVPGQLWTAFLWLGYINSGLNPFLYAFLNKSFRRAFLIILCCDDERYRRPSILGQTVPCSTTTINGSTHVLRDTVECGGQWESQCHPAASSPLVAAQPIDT

Chain of Vasopressin V1a receptor (P37288 whole entry): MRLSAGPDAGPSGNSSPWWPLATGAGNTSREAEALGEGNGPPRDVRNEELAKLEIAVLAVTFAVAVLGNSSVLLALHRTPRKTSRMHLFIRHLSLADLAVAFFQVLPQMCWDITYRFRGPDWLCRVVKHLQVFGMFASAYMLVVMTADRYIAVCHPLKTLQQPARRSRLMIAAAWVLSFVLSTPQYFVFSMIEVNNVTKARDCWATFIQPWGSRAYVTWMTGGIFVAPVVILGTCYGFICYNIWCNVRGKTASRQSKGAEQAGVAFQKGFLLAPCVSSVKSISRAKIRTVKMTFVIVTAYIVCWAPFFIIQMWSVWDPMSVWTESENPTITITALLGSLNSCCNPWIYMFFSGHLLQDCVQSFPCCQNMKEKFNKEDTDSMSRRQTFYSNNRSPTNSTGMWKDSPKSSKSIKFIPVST

Molecule | IC50 [1] | IC50 ([2]; cho-k1) | IC50 [3] | IC50 [4] | Ki [4] | IC50 [5] | IC50 [6] | IC50 [7] | IC50 ([2]; read-out: IC50) [µM] | Ki ([2]; read-out: Ki) [µM] | Ki [1] | Ki ([2]; cho-k1) | Ki [3] | Ki [6] | Ki [7] | IC50 ([3]; read-out: IC50) [µM] | IC50 ([7]; read-out: IC50) [µM] | Ki ([7]; read-out: Ki) [µM]
CC(C)CN(C[C@@H](O)[C@H](Cc1ccccc1)NC(=O)O[C@H]1CCOC1)S(=O)(=O)c1ccc(N)cc1 | Not Active | Not Active | Not Active | Not Active | Not Active | Not Active | Not Active | Not Active |  |  |  |  |  |  |  |  |  | 
c1ccc(Nc2ccc(Nc3ccccc3)cc2)cc1 | Not Active |  | Not Active | Not Active | Not Active | Not Active | Not Active | Not Active | 0.142 | 0.09 |  |  |  |  |  |  |  | 
COc1cc2c3cc1Oc1cc(ccc1O)C[C@@H]1c4c(cc(OC)c(O)c4Oc4ccc(cc4)C[C@@H]3N(C)CC2)CC[N+]1(C)C.[Cl-] | Not Active | Not Active | Not Active | Not Active | Not Active | Not Active | Not Active | Not Active |  |  |  |  |  |  |  |  |  | 
NC(=O)N1c2ccccc2CCc2ccccc21 | Not Active | Not Active | Not Active | Not Active | Not Active | Not Active | Not Active | Not Active |  |  |  |  |  |  |  |  |  | 
O=C1CC[C@@H](N2C(=O)c3ccccc3C2=O)C(=O)N1 | Not Active | Not Active | Not Active | Not Active | Not Active | Not Active | Not Active | Not Active |  |  |  |  |  |  |  |  |  | 
Cc1onc(O)c1CC(N)C(=O)O (racemic) [(R,S)-AMPA] | Not Active | Not Active | Not Active | Not Active | Not Active | Not Active | Not Active | Not Active |  |  |  |  |  |  |  |  |  | 
Cc1ccc2cc3c(ccc4ccccc43)c3c2c1CC3 [3-METHYLCHOLANTHRENE] | Not Active | Not Active | Not Active | Not Active | Not Active |  | Not Active | Not Active |  |  |  |  |  |  |  |  |  | 
CC[C@@]1(O)C[C@H](O[C@H]2C[C@H](N(C)C)[C@H](O[C@H]3C[C@H](O)[C@H](O[C@H]4CCC(=O)[C@H](C)O4)[C@H](C)O3)[C@H](C)O2)c2c(cc3c(c2O)C(=O)c2c(O)cccc2C3=O)[C@H]1C(=O)OC [ACLARUBICIN] | Not Active |  | Not Active | Not Active | Not Active | Not Active | Not Active | Not Active | 1.11 | 0.704 |  |  |  |  |  |  |  | 
Nc1nc2c(ncn2COCCO)c(=O)[nH]1 [ACYCLOVIR] | Not Active | Not Active | Not Active | Not Active | Not Active | Not Active | Not Active | Not Active |  |  |  |  |  |  |  |  |  | 
Cc1c(C)c2c(c(C)c1O)CC[C@@](C)(CCC[C@H](C)CCC[C@H](C)CCCC(C)C)O2 [ALPHA-TOCOPHEROL] | Not Active | Not Active | Not Active | Not Active | Not Active | Not Active | Not Active | Not Active |  |  |  |  |  |  |  |  |  | 
CN(C)c1nc(N(C)C)nc(N(C)C)n1 [ALTRETAMINE] | Not Active | Not Active | Not Active | Not Active | Not Active | Not Active | Not Active | Not Active |  |  |  |  |  |  |  |  |  | 
Nc1c(Br)cc(Br)cc1CN[C@H]1CC[C@H](O)CC1 [AMBROXOL] | Not Active | Not Active | Not Active | Not Active | Not Active | Not Active | Not Active | Not Active |  |  |  |  |  |  |  |  |  | 
NCCCCCC(=O)O [AMINOCAPROIC ACID] | Not Active | Not Active | Not Active | Not Active | Not Active | Not Active | Not Active | Not Active |  |  |  |  |  |  |  |  |  | 
CCC1(c2ccc(N)cc2)CCC(=O)NC1=O (configuration not stated) [AMINOGLUTETHIMIDE] | Not Active | Not Active | Not Active | Not Active | Not Active | Not Active | Not Active | Not Active |  |  |  |  |  |  |  |  |  | 
Cc1ccc(/N=C/N(C)/C=N/c2ccc(C)cc2C)c(C)c1 [AMITRAZ] | Not Active | Not Active | Not Active | Not Active | Not Active |  | Not Active | Not Active |  |  |  |  |  |  |  |  |  | 
COc1ccc(C[C@H]2NC[C@H](O)[C@H]2OC(C)=O)cc1 [ANISOMYCIN] | Not Active | Not Active | Not Active | Not Active | Not Active |  | Not Active | Not Active |  |  | Not Active | Not Active | Not Active | Not Active | Not Active |  |  | 
O=C(O)CCCc1ccc(N(CCCl)CCCl)cc1 [CHLORAMBUCIL] | Not Active | Not Active | Not Active | Not Active | Not Active |  | Not Active | Not Active |  |  |  |  |  |  |  |  |  | 
CN(C)CCCN1c2ccccc2Sc2ccc(Cl)cc21 [CHLORPROMAZINE] | Not Active |  | Not Active | Not Active | Not Active |  | Not Active | Not Active |  |  |  |  |  |  |  |  |  | 
CC1=C2C(=CO[C@H](C)[C@H]2C)C(O)=C(C(=O)O)C1=O [CITRININ] | Not Active | Not Active | Not Active | Not Active | Not Active |  | Not Active | Not Active |  |  |  |  |  |  |  |  |  | 
CC(C)(C)NCC(O)c1cc(Cl)c(N)c(Cl)c1 (configuration not stated) [CLENBUTEROL] | Not Active | Not Active | Not Active | Not Active | Not Active |  | Not Active | Not Active |  |  |  |  |  |  |  |  |  | 
COc1cc2nc(N3CCN(C(=O)C4COc5ccccc5O4)CC3)nc(N)c2cc1OC (configuration not stated) [DOXAZOSIN] | Not Active |  |  | Not Active | Not Active | Not Active | Not Active |  |  |  |  |  |  |  |  | 5.75 | 0.764 | 0.127
C[C@]12CC[C@@H]3c4ccc(O)cc4CC[C@H]3[C@@H]1CCC2=O [ESTRONE] | Not Active |  | Not Active | Not Active | Not Active | Not Active | Not Active | Not Active |  |  |  |  |  |  |  |  |  | 
Cc1ccc(N(CC2=NCCN2)c2cccc(O)c2)cc1 [PHENTOLAMINE] | Not Active |  | Not Active | Not Active | Not Active | Not Active | Not Active | Not Active |  |  |  |  |  |  |  |  |  | 
CADMIUM ACETATE | Not Active | Not Active | Not Active | Not Active | Not Active |  | Not Active | Not Active |  |  | Not Active | Not Active | Not Active | Not Active | Not Active |  |  | 
LEAD (II) ACETATE | Not Active | Not Active | Not Active | Not Active | Not Active |  | Not Active | Not Active |  |  | Not Active | Not Active | Not Active | Not Active | Not Active |  |  | 
LIPOPOLYSACCHARIDE E. COLI O55:B5 | Not Active | Not Active | Not Active | Not Active | Not Active |  | Not Active | Not Active |  |  | Not Active | Not Active | Not Active | Not Active | Not Active |  |  | 
